Assay results taken from ChEMBL document CHEMBL3259563, “The discovery of potent and selective non-steroidal glucocorticoid receptor modulators, suitable for inhalation” (Bioorg Med Chem Lett, 2014).
pIC50: −log10 of the molar value. In brackets after ≈: the same amount, converted by molar mass.

How the values were obtained:
[1] = Lipophilicity, log D of the compound at pH 7.4; assay type: physicochemical; details: buffer
[2] = target: T1, Mineralocorticoid receptor (Homo sapiens, UniProt P08235); assay: Binding affinity to mineralocorticoid receptor (unknown origin)
T1 sequence (P08235 whole entry): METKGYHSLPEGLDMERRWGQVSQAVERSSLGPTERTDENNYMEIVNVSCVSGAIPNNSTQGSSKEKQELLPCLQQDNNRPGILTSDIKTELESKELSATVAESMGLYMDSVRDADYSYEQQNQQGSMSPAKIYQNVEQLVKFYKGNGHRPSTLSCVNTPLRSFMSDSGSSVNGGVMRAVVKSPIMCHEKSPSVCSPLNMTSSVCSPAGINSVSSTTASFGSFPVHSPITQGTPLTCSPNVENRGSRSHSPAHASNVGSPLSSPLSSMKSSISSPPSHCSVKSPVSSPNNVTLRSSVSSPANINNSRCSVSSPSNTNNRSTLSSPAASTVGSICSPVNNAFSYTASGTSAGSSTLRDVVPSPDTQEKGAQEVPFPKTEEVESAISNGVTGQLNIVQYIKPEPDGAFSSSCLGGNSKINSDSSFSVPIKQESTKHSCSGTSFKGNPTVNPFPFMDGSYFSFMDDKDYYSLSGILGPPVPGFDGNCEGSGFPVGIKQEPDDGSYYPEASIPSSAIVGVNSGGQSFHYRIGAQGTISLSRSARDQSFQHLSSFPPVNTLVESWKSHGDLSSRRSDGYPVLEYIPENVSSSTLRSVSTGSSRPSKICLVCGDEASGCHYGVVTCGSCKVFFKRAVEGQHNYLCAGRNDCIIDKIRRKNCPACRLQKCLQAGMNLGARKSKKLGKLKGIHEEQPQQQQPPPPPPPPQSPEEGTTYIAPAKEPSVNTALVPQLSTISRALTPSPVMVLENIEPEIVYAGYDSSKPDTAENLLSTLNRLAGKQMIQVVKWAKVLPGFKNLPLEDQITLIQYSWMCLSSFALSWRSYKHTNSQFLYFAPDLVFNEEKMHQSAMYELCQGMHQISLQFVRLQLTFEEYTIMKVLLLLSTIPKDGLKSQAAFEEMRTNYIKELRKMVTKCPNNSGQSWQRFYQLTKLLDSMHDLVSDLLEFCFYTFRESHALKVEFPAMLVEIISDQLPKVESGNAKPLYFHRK

Androgen receptor = target: T2, Androgen receptor (Homo sapiens, UniProt P10275); assay: Binding affinity to androgen receptor (unknown origin)
T2 sequence (P10275 whole entry): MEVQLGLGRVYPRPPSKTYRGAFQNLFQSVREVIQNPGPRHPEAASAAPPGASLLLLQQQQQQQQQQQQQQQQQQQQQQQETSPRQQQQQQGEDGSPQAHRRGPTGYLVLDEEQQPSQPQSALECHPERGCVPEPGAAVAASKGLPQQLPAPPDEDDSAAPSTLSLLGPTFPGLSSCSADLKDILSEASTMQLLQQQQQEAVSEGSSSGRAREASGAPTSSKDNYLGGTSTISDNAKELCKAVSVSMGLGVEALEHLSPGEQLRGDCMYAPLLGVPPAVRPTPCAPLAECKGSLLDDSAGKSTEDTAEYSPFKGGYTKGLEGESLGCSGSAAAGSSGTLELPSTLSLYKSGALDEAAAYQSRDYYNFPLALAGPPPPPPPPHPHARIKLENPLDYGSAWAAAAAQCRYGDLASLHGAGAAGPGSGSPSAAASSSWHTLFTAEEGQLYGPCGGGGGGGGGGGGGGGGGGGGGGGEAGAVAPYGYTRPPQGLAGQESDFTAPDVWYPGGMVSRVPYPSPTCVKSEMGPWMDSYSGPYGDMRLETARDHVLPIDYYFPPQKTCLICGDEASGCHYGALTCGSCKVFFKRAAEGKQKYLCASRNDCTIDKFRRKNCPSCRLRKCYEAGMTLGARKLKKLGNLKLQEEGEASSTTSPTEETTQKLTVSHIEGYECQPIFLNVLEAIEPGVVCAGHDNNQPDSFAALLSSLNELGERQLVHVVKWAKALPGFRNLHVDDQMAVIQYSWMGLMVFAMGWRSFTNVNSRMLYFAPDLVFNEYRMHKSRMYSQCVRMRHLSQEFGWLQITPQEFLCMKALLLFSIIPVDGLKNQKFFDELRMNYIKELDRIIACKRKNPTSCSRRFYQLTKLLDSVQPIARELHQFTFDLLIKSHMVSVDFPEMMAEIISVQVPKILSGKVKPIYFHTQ

[3] = Thermodynamic solubility of the crystalline compound in 0.1 M phosphate buffer at pH 7.4 at 25 degC after 24 hrs; assay type: physicochemical; details: read-out: Therm_solubility
[4] = Intrinsic clearance in human microsomes; assay type: ADME, Microsome
Cytochrome P450 1A2 = target: T3, Cytochrome P450 1A2 (Homo sapiens, UniProt P05177); assay: Inhibition of CYP1A2 (unknown origin); assay type: ADME
T3 sequence (P05177 whole entry): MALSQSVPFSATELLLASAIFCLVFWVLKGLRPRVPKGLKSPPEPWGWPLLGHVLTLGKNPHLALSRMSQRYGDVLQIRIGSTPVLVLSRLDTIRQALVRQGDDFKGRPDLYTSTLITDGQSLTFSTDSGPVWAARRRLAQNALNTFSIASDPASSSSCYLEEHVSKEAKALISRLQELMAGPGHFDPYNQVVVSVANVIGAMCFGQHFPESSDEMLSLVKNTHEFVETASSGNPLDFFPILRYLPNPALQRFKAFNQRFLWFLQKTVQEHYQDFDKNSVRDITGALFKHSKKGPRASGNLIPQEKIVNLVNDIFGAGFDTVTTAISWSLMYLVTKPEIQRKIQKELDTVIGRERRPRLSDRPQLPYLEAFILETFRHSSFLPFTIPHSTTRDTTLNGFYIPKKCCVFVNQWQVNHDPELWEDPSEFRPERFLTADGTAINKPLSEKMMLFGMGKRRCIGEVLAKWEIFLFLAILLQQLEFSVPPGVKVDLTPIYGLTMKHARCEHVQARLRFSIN

Cytochrome P450 2C19 = Cytochrome P450 2C19 (Homo sapiens, UniProt P33261); assay: Inhibition of CYP2C19 (unknown origin); assay type: ADME
Cytochrome P450 2C9 = Cytochrome P450 2C9 (Homo sapiens, UniProt P11712); assay: Inhibition of CYP2C9 (unknown origin); assay type: ADME
[5] = Volume of distribution at steady state in iv dosed rat; assay type: ADME, organism-based; details: in vivo, read-out: Vdss
Lung = assay: Drug uptake in intratracheally dosed rat lung after 4 hrs; assay type: ADME, organism-based; details: in vivo, inhaled_or_intranasal
[6] = Thermodynamic solubility of the amorphous compound in 0.1 M phosphate buffer at pH 7.4 at 25 degC after 24 hrs; assay type: physicochemical; details: read-out: Therm_solubility

Sequence of Cytochrome P450 2C19 (P33261 whole entry): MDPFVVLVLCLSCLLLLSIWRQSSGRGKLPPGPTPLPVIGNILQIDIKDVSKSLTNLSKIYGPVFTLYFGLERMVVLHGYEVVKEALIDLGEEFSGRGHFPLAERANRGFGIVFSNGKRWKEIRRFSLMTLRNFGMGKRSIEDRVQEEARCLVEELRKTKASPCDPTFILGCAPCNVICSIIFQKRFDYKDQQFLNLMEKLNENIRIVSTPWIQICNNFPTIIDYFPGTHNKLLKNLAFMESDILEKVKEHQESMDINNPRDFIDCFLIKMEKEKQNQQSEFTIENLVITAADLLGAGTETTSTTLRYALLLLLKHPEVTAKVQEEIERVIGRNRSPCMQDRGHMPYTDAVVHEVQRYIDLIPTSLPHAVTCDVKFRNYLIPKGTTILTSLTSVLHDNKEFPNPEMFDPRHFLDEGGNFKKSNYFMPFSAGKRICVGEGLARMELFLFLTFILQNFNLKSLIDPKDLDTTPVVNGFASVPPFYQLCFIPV
Sequence of Cytochrome P450 2C9 (P11712 whole entry): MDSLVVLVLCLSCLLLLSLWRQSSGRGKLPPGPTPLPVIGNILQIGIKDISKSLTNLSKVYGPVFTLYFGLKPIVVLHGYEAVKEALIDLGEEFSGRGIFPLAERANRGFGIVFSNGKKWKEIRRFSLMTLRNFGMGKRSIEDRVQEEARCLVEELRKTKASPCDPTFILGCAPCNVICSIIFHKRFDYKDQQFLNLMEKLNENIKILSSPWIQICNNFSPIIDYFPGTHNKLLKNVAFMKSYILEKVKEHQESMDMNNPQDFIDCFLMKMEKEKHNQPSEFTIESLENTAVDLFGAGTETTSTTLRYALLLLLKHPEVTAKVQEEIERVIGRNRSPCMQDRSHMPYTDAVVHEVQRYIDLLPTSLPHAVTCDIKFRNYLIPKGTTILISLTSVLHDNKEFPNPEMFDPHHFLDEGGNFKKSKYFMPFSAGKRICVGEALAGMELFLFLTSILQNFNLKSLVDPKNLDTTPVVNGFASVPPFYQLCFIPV

Cc1nn(C2CCCC2)c(C)c1S(=O)(=O)N[C@@H](C)CNc1cccc2c1cnn2-c1ccc(F)nc1
logD [1]: 3.7
pIC50 [2]: < 5.30
pIC50 (Androgen receptor): < 6.00
solubility thermodynamic at 24 h [3]: 1.5 µM (≈ 0.767 µg/mL)
microsomal CLint [4]: > 200 µL/min/mg
pIC50 (Cytochrome P450 1A2): < 4.70
pIC50 (Cytochrome P450 2C19): < 4.70
pIC50 (Cytochrome P450 2C9): 4.77
Vd [5]: 15 L/kg
Drug uptake (Lung): Active
solubility thermodynamic at 24 h [6]: 22 µM (≈ 11.3 µg/mL)
